Experiments:
HeLa cells = assay: Radiolabelled L-arginine uptake into HeLa cells; type: cell-based
Method: C: Control performed in the absence of test compound. […] Panel A: Compound A4; Panel B: Compound A7; Panel C: G10; Panel D: Compound H4.
In parallel with this assay, the capacity for these compounds to alter arginine entry into cells was assessed. Initial studies were conducted in HeLa cells. Arginine entry was determined by the rate of entry of radiolabelled L-arginine into the cells, using the method of Kaye et al., (2000). Of the total library, four compounds were identified which had inhibitory activity at a Ki of 100 μM. These compounds were as follows:
In the light of the foregoing discussion, we propose that this effect may be associated with therapeutic benefit.

EA.hy.926 = assay: Arginine uptake by endothelial cell line EA.hy.926; type: cell-based; conditions: Homo sapiens, read-out: Arg uptake (% control) from FIG. 4; for activity at 0.1 µM: compound at 10^-7 M (bottom value); for activity at 0.01 µM: compound at 10^-8 M (top value)
Description: Further studies have been performed to characterize the effects of compounds from library M0006 on arginine transport in endothelial cells. Studies performed in the endothelial cell line EA.hy.926 (Harrison-Shostak et al, 1997) have identified a number of compounds which exert a stimulatory effect on L-arginine transport. This cell line is considered to be more physiologically relevant than HeLa cells to the target conditions, and in fact was more sensitive. Table 16 summarises results for the compounds so far identified which have the highest activity in the arginine transport assay.

rat aorta = assay: Isolated aortic ring assay: acetyl choline-induced vascular relaxation; conditions: rat aorta sections; compound at 10^−8M
Method: FIG. 3 illustrates the augmentation of vascular relaxation produced by increasing concentrations of acetyl choline in the absence of and presence of test compounds. C indicates control.
Initially four compounds were tested for their effect on vascular tone, using an isolated aortic ring assay. In this assay, sections of rat aorta are mounted in an organ bath, and tension is determined continuously using a strain gauge, as described by Furchgott & Zawadski (1980). The effect of test compounds on the vasorelaxant effect of the endothelial-dependent vasodilator acetyl choline (ACh) was examined. […] It will be appreciated that similar experiments may be performed using sections of human aorta, coronary artery or peripheral artery obtained at surgery.

Structure (SMILES)	effect on L-arginine transport at low concentration (HeLa cells; HeLa cells, low concentration (10^−7 and 10^−8 M))	effect on L-arginine transport at high concentration (HeLa cells; high concentration)	activity at 0.1 µM (EA.hy.926)	activity at 0.01 µM (EA.hy.926)	augmentation of acetyl choline-induced vascular relaxation (rat aorta)
N=C(NCc1cc(C(F)(F)F)cc(C(F)(F)F)c1)Nc1ccc(C(N)=O)cc1OCC1CCCCC1 [Compound G10, 3-Cyclohexylmelhoxy-4-[N′-(3,5-trifluoromethyl-benzyl)-guanidino]-benzamide]	enhance L-arginine transport at low concentration	inhibit such transport at high concentration	–	–	–
N=C(NCc1ccc2c(c1)OCO2)Nc1ccc(C(N)=O)cc1OCC1CCCCO1 (centres unmarked) [M0006 01 F10, 4-(N′-Benzo[1,3]dioxol-5-ylmethyl-guanidino)-3-(tetrahydro-pyran-2-ylmethoxy)-benzamide]	–	–	131%	119%	–
COc1ccccc1CNC(=N)Nc1ccc(C(N)=O)cc1OCC1CCCCC1 [M0006 01 H10, 3-Cyclohexylmethoxy-4-[N′-(2-methoxy-benzyl)-guanidino]-benzamide]	–	–	146%	153%	–
N=C(NCc1ccccc1)Nc1ccc(C(N)=O)cc1OCc1ccccc1 [M0006 02 E06, 4-(N′-Benzyl-guanidino)-3-benzyloxy-benzamide]	–	–	160%	167%	–
Cc1cccc(COc2cc(C(N)=O)ccc2NC(=N)NCc2ccco2)c1 [M0006 02 H08, 4-(N′-Furan-2-ylmethyl-guanidino)-3-(3-methyl-benzyloxy)-benzamide]	–	–	182%	108%	–
N=C(NCc1ccccc1F)Nc1ccc(C(N)=O)cc1OCC1CCC1 [M0006 01 A11, 3-Cyclobutylmethoxy-4-[N′-(2-fluoro-benzyl)-guanidino]-benzamide]	–	–	128%	159%	–
N=C(NCc1ccco1)Nc1ccc(C(N)=O)cc1OCc1ccccc1 [M0006 02 F06, 3-Benzyloxy-4-(N′-furan-2-ylmethyl-guanidino)-benzamide]	–	–	126%	158%	–
Cc1ccc(CNC(=N)Nc2ccc(C(N)=O)cc2OCC2CCC2)cc1 [M0006 01 A12, 3-Cyclobutylmethoxy-4-[N′-(4-methyl-benzyl)-guanidino]-benzamide]	–	–	160%	179%	–
N=C(NCC1CCCCC1)Nc1ccc(C(N)=O)cc1OCC1CCCCC1 [M0006 02 A10, 3-Cyclohexylmethoxy-4-(N′-cyclohexylmethyl-guanidino)-benzamide]	–	–	127%	123%	–
CC(CNC(=N)Nc1ccc(C(N)=O)cc1OCC1CC1)c1ccccc1 (centres unmarked) [M0006 01 C12, 3-Cyclopropylmethoxy-4-[N′-(2-phenyl-propyl)-guanidino]-benzamide]	–	–	133%	116%	–
N=C(NCc1ccccc1)Nc1ccc(C(N)=O)cc1OCC1CCCCO1 (centres unmarked) [M0006 01 F09, 4-(N′-Benzyl-guanidino)-3-(tetrahydro-pyran-2-ylmethoxy)-benzamide]	–	–	110%	140%	–
N=C(NCc1ccccc1)Nc1ccc(C(N)=O)cc1OCC1CCCCC1 [M0006 01 H11, 4-(N′-Benzyl-guanidino)-3-cyclohexylmethoxy-benzamide]	–	–	190%	131%	–
N=C(NCNc1ccc([N+](=O)[O-])cn1)Nc1ccc(C(N)=O)cc1OCc1ccccc1 [M0006 02 D06, 3-Benzyloxy-4-{N′-[(5-nitro-pyridin-2-ylamino)-methyl]-guanidino}-benzamide]	–	–	138%	176%	–
CC(CNC(=N)Nc1ccc(C(N)=O)cc1OCC1CCCCO1)c1ccccc1 (centres unmarked) [M0006 01 F05, 4-[N′-(2-Phenyl-propyl)-guanidino)-3-(tetrahydro-pyran-2-ylmethoxy)-benzamide]	–	–	130%	135%	–
CC(C)CNC(=N)Nc1ccc(C(N)=O)cc1OCC1CCCCO1 (centres unmarked) [M0006 01 F12, 4-(N′-Isobutyl-guanidino)-3-(tetrahydro-pyran-2-ylmethoxy)-benzamide]	–	–	146%	103%	–
N=C(NCc1cc(C(F)(F)F)cc(C(F)(F)F)c1)Nc1ccc(C(N)=O)cc1OCC1CCC1 [Compound A4]	–	–	–	–	significant augmentation
N=C(NCc1ccc(Cl)c(Cl)c1)Nc1ccc(C(N)=O)cc1OCC1CCC1 [M0006 01 A07, 3-Cyclobutylmethoxy-4-[N′-(3,4-dichloro-benzyl)-guanidino]-benzamide]	–	–	66%	87%	–
N=C(NCc1ccc(Cl)c(Cl)c1)Nc1ccc(C(N)=O)cc1OCC1CCCCC1 [M0006 01 H04, 3-Cyclohexylmethoxy-4-[N′-(3,4-dichloro-benzyl)-guanidino]-benzamide]	–	–	92%	99%	–
N=C(NCc1cc(C(F)(F)F)cc(C(F)(F)F)c1)Nc1ccc(C(N)=O)cc1OCC1CCC1 [M0006 01 A04]	–	–	108%	103%	–
N=C(NCc1ccc(Cl)c(Cl)c1)Nc1ccc(C(N)=O)cc1OCC1CCCCC1 [Compound H4, 3-Cyclohexylmethoxy-4-[N′-(3,4-dichloro-benzyl)-guanidino]-benzamide]	–	–	–	–	significant augmentation
N=C(NCc1cc(C(F)(F)F)cc(C(F)(F)F)c1)Nc1ccc(C(N)=O)cc1OCC1CCCCC1 [M0006 01 G10]	–	–	188%	125%	–
N=C(Nc1ccc(C(N)=O)cc1OCC1CCC1)NC1CCCCC1 [M0006 01 B12, 3-Cyclobutylmethoxy-4-(N′-cyclohexyl-guanidino)-benzamide]	–	–	134%	161%	–
COc1ccccc1CNC(=N)Nc1ccc(C(N)=O)cc1OCC1CCC1 [M0006 01 B04, 3-Cyclobutylmethoxy-4-[N′-(2-methoxy-benzyl)-guanidino]-benzamide]	–	–	122%	130%	–

Source: patent US7956219B2, “Amino acid analogues” (Baker IDI Heart and Diabetes, priority 2002, dated 2011)
